From paper PMC3006138, “Fexinidazole – A New Oral Nitroimidazole Drug Candidate Entering Clinical Development for the Treatment of Sleeping Sickness” (PLoS Neglected Tropical Diseases, 2010)
Values joined by “and” are separate entries in the source; they are usually repeats but may differ in a detail not shown here. Equal values may be shown once.

Key:
[1] = system: T. b. gambiense (STIB 930); experiment: In vitro trypanocidal assay (Alamar Blue); format: cell-based, Trypanosoma brucei gambiense; conditions: Trypanosoma brucei, 72 h; read-out: IC50
Description: Parasites were cultured with or without the test article at a concentration of 3×10^4/mL in Minimal Essential Medium, according to Baltz et al., with the following modifications: 0.2 mM 2-mercaptoethanol, 1 mM Na-pyruvate, 0.5 mM hypoxanthine and 15% heat inactivated horse serum at 37°C in 5% CO2 in 96-well microtitre plates for 72 h. 10 µL of Alamar Blue was added for the final 3 h to determine viability. The assay was assessed by reading the fluorescence in each well at an excitation wavelength of 536 nm and at an emission wavelength of 588 nm. The IC50 values were calculated from the sigmoidal inhibition curves. For cytotoxicity, 4×10^4/mL L-6 rat skeletal myoblast cells were used, and incubations and assessments carried out as above.

mouse hepatocytes = experiment: Hepatocyte intrinsic clearance and metabolite profile; format: in vitro ADME; conditions: fexinidazole 10 µM
Description: (§1) Fexinidazole was incubated with cryopreserved hepatocytes from male CD-1 mice, male Sprague Dawley rats, male beagle dogs, male cynomolgus monkeys, and from pooled white or African-American human donor samples (purchased commercially), at concentrations of 1 µM and 10 µM. […] The incubated samples were analyzed by LC-MS after extraction into acetonitrile.
(§2) A quality control analysis of fexinidazole was performed via 1H-NMR in DMSO and LC- […]
(§3) provided by the Swiss Tropical Institute (Basel, Switzerland).
(§4) Reagents and solvents were of analytical grade and obtained from Sigma-Aldrich (St. Louis, […]
(§5) Cryopreserved hepatocytes from the male CD1 mouse, lot CSI; male Sprague Dawley rat, lot LPL; male beagle dog, lot BWX; male cynomolgus monkey, lot EHH; and pooled human samples, lot MJI, were purchased from In Vitro Technologies Inc (Baltimore, Maryland, […]
(§6) 5.4. In vitro Incubations
(§7) On the day of the experiment a 10 mM stock solution of fexinidazole in DMSO was prepared and, within 3 hours, aliquots of this freshly prepared solution, after suitable dilution, were added to the incubation matrix, to reach fexinidazole final concentrations of 1 and 10 µM. The final percentage of DMSO was 0.01% in the incubation samples for the […]
(§8) On the day of experiment, the cryopreserved hepatocytes were thawed following the detailed instructions provided by the supplier.
(§9) The number of viable cells was determined using a Trypan Blue exclusion method.
(§10) 5.4.1. Intrinsic Clearance Study […]
(§11) µM with mouse, rat, dog, monkey and human hepatocytes (300000 cells/mL for the mouse and 1 million cells/mL for the other species) in a final incubation volume of 0.75 mL […]
(§12) Incubations were performed in duplicate in a 48-well plate under shaking. Sampling was performed using an automatic liquid handling system (Multiprobe II EX, Packard). At 0, 1, 5, 10, 15, 20, 30, 60 and 120 minutes, 50 µL aliquots of the incubates were taken, then 80 µL of ice-cold acetonitrile and 20 µL of 1 µM warfarin in acetonitrile (internal standard) were added, and samples centrifuged at 2000 rpm for 20 min. The supernatant was analyzed by LC-MS/MS. […]
(§13) the medium alone at t = 0 and 120 minutes.
(§14) For the determination of phase I and phase II activity of hepatocytes, 7-ethoxycoumarin (7-EC) 1 µM, and 7-hydroxycoumarin (7-HC) 30 µM were used as positive controls and incubated under the same conditions as fexinidazole. Aliquots of incubates were taken at 0, 10, 20, 30, 60 and 120 minutes and processed as fexinidazole samples.
(§15) 5.4.2. Metabolite Profile Study
(§16) For metabolite profiling, fexinidazole was incubated at a concentration of 10 µM with mouse, rat, dog, monkey and human hepatocytes (300000 cells/mL for the mouse and 1 million cells/mL for the other species) in a final incubation volume of 2 mL Leibovitz L-15 […]
(§17) Aliquots of the incubation samples were taken at t = 0, 30 and 120 minutes; the metabolism was stopped by the addition of an equal volume of cold acetonitrile and the samples centrifuged at 1500 rpm for 20 min. The supernatant was stored at -20°C until analysis. Control incubations were performed with the compound in the medium alone […]
(§18) 5.5. Analysis of Samples for Intrinsic Clearance Determination
(§19) The analysis of the samples for intrinsic clearance determination was performed by an LC-MS/MS method, using the following conditions:
(§20) HPLC Equipment and Conditions
(§21) HPLC system Agilent 1100 binary pump (Agilent, Palo Alto, USA)
(§22) Autosampler CTC Pal (Alfatech, San Jose, USA)
(§23) Analytical column Guard Column SB-C8 4.6 x 12.5 mm, 5 µm (Zorbax)
(§24) Column temperature ambient
(§25) Mobile phase A 10 mM ammonium formate pH 4.0: acetonitrile (95:5, v:v)
(§26) Mobile phase B 10 mM ammonium formate pH 4.0: acetonitrile (5:95, v:v) […]
(§27) Gradient conditions Step Total time (min) flow (µL/min) %A % B […]
(§28) MS Equipment and Conditions
(§29) Mass spectrometer API 4000 Triple Quadrupole (MDS-Sciex, Toronto, […]
(§30) Source Turbo Ion Spray (TIS)
(§31) Ion mode Positive for fexinidazole and 7-EC.
(§32) Negative for 7-HC, 7-HC sulphate and 7-HC glucuronide.

monkey hepatocytes = experiment: as above; format: in vitro ADME, cynomolgus monkey; conditions: fexinidazole 10 µM
Description: as §1, §2, §3, §4, §5, §6, §7, §8, §9, §10, §11, §12, §13, §14, §15, §16, §17, §18, §19, §20, §21, §22, §23, §24, §25, §26, §27, §28, §29, §30, §31, §32

[2] = One-electron reduction potential by pulse radiolysis; format: physicochemical
Description: One-electron reduction potentials were determined by pulse radiolysis following an established procedure.

SMILES	IC50 [1]	% of total drug related material (mouse hepatocytes; t=0) [%]	% of total drug related material (monkey hepatocytes; t=0) [%]	single electron redox potential [2] [mV]	% of total drug related material (mouse hepatocytes; 30 min) [%]	% of total drug related material (mouse hepatocytes; 120 min) [%]	% of total drug related material (monkey hepatocytes; 30 min) [%]	% of total drug related material (monkey hepatocytes; 120 min) [%]
CSc1ccc(OCc2ncc([N+](=O)[O-])n2C)cc1 [Fexinidazole, 1-methyl-2-((p-(methylthio)phenoxy)methyl)-5-nitroimidazole]	0.16 µg/mL to 0.36 µg/mL and 580 nM to 1.29 µM	42	53	−511	–	–	–	–
Cn1c([N+](=O)[O-])cnc1COc1ccc([S+](C)[O-])cc1 (stereo not drawn) [Fexinidazole sulfoxide]	0.18 µg/mL to 0.36 µg/mL and 610 nM to 1.22 µM	58	47	−493	92	80	60	42
Cn1c([N+](=O)[O-])cnc1COc1ccc(S(C)(=O)=O)cc1 [Fexinidazole sulfone]	0.16 µg/mL to 0.39 µg/mL and 480 nM to 1.25 µM	–	–	−488	8	20	40	58
